Results reported in ChEMBL document CHEMBL4261605, “Discovery of a novel series of pyridine and pyrimidine carboxamides as potent and selective covalent inhibitors of Btk” (Bioorg Med Chem Lett, 2018).

Key:
[1] = biological target: T1, Tyrosine-protein kinase BTK (Homo sapiens, UniProt Q06187); assay: Inhibition of recombinant human full length N-terminal GST-tagged BTK (2 to 659 residues) expressed in baculovirus expression system using FITC-AHA-EEPLYWSFPAKKK-NH2 substrate measured after 90 mins by off-chip mobility shift assay
[2] = biological target: T1, Tyrosine-protein kinase BTK; assay: Inhibition of BTK in goat anti-human IgM F(ab')2-stimulated human PBMC assessed as suppression of BCR-induced CD69 expression on B cells pretreated for 1 hr followed by blood stimulation measured after overnight incubation by flow cytometry; type: cell-based
[3] = biological target: T1, Tyrosine-protein kinase BTK; assay: Inhibition of recombinant human full length N-terminal GST-tagged BTK (2 to 659 residues) expressed in baculovirus expression system at 100 uM using FITC-AHA-EEPLYWSFPAKKK-NH2 substrate measured after 90 mins by off-chip mobility shift assay relative to control
[4] = Half life in mouse at 0.5 mg/kg, po; type: ADME, organism-based; settings: in vivo
Cytochrome P450 3A4 = Cytochrome P450 3A4 (Homo sapiens, UniProt P08684); assay: Inhibition of CYP3A4 (unknown origin); type: ADME
Cytochrome P450 2B6 = biological target: T2, Cytochrome P450 2B6 (Homo sapiens, UniProt P20813); assay: Inhibition of CYP2B6 (unknown origin); type: ADME
T2 sequence (P20813 whole entry): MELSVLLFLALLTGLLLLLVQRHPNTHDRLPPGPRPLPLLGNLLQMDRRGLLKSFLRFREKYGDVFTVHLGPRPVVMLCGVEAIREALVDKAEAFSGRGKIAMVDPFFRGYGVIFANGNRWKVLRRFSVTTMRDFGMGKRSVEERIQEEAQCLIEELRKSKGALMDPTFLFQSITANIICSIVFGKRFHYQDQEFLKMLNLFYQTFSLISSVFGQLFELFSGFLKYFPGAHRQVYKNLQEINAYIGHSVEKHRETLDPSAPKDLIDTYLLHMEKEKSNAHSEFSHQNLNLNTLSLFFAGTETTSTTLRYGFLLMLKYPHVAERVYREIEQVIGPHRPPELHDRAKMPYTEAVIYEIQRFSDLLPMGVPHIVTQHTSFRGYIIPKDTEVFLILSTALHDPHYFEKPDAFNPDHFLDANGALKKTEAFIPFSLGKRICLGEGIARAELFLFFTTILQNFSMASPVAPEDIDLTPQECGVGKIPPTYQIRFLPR

[5] = AUC in mouse at 0.5 mg/kg, po; type: ADME, organism-based; settings: in vivo
Cytochrome P450 2C19 = Cytochrome P450 2C19 (Homo sapiens, UniProt P33261); assay: Inhibition of CYP2C19 (unknown origin); type: ADME
Cytochrome P450 2C9 = Cytochrome P450 2C9 (Homo sapiens, UniProt P11712); assay: Inhibition of CYP2C9 (unknown origin); type: ADME
Cytochrome P450 2C8 = biological target: T3, Cytochrome P450 2C8 (Homo sapiens, UniProt P10632); assay: Inhibition of CYP2C8 (unknown origin); type: ADME
T3 sequence (P10632 whole entry): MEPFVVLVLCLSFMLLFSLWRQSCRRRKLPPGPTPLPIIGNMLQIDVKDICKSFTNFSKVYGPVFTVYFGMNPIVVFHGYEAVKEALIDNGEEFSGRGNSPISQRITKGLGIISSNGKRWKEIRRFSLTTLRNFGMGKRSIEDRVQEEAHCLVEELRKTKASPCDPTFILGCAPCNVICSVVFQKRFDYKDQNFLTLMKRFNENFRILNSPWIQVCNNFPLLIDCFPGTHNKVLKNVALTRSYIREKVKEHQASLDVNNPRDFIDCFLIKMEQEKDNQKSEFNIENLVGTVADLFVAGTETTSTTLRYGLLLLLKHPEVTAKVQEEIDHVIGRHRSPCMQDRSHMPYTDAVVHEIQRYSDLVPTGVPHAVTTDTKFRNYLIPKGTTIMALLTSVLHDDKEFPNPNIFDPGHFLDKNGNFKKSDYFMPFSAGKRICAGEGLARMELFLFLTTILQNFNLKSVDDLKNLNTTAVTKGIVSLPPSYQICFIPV

[6] = Efflux ratio of permeability in human Caco2 cells; settings: Caco-2
[7] = Permeability across apical to basolateral side in human Caco2 cells; settings: Caco-2

T1 sequence (Q06187 whole entry, the tested form may be a part): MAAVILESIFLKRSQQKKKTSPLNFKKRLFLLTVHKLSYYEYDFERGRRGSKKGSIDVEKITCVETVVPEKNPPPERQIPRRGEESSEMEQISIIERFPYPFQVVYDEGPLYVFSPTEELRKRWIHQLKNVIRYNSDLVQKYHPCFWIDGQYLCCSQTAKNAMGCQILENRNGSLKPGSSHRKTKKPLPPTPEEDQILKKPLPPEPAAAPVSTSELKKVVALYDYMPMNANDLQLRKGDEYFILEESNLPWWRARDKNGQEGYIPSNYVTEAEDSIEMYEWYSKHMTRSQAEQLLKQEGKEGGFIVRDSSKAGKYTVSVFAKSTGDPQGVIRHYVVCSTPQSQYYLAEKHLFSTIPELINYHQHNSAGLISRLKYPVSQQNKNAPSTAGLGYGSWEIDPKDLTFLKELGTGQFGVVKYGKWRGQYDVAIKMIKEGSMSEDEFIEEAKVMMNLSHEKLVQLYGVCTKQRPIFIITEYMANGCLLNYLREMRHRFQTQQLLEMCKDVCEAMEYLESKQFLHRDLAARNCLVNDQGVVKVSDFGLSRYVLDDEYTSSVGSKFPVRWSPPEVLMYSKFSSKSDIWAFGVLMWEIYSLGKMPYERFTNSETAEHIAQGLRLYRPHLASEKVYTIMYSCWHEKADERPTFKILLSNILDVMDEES
Cytochrome P450 2C9, sequence (P11712 whole entry): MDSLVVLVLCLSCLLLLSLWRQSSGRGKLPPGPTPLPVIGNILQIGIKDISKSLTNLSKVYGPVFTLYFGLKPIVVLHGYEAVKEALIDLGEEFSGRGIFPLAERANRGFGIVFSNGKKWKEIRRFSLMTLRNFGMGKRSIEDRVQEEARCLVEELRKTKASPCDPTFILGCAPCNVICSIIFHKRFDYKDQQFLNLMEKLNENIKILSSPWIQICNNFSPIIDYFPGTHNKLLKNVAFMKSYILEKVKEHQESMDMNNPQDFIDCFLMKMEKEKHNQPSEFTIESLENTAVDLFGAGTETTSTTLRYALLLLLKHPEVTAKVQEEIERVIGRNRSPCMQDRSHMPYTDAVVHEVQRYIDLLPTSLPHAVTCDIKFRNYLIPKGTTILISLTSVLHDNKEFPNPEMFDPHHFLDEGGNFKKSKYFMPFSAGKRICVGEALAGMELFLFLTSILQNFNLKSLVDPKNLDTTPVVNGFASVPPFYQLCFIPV
Cytochrome P450 3A4, sequence (P08684 whole entry): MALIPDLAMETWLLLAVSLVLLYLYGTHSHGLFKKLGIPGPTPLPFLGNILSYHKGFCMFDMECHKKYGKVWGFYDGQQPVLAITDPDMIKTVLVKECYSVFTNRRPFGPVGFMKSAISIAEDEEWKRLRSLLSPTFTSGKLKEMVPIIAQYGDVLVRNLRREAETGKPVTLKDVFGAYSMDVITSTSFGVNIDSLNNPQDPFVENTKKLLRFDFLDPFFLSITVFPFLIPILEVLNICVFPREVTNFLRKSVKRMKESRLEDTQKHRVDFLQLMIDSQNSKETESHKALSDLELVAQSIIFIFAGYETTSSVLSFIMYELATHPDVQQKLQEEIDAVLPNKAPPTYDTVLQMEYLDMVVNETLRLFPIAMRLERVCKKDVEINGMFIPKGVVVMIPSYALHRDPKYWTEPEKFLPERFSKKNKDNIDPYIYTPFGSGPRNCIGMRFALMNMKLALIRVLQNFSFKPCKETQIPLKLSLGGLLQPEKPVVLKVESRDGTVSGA
Cytochrome P450 2C19, sequence (P33261 whole entry): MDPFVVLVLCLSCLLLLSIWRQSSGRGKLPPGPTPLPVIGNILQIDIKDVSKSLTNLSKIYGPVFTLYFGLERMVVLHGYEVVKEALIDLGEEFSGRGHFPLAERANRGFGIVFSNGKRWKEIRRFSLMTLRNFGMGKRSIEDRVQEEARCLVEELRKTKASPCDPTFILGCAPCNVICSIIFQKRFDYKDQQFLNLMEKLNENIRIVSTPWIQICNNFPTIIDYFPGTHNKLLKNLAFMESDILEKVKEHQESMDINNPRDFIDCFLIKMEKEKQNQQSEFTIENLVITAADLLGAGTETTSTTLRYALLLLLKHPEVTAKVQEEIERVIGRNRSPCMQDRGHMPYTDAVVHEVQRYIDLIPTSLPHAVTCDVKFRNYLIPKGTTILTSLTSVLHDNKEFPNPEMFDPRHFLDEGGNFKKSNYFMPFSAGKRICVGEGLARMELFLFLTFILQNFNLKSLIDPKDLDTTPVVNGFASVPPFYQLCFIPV

Structure (SMILES)	IC50 [1]	IC50 [2]	other results
C=CC(=O)N[C@H]1CCN(c2ncc(C(N)=O)c(Nc3ccc(C(=O)N4CCOCC4)cc3)n2)C1	0.5 nM	–	–
C=CC(=O)N1CCN(c2ccc(C(N)=O)c(Nc3ccc(CCN4CCCC4)cc3)n2)CC1	0.3 nM	4.3 nM	–
C=CC(=O)N1C[C@H]2C[C@@H]1CN2c1ccc(C(N)=O)c(Nc2ccc(C)nc2)n1	0.1 nM	1.4 nM	–
C=CC(=O)N[C@H]1CCN(c2ccc(C(N)=O)c(NC3CCCCC3)n2)C1	> 6000 nM	–	–
NC(=O)c1ccc(NC2CCCCC2)nc1	> 6000 nM	–	inhibition [3]: 71%
C=CC(=O)N[C@@H]1CCN(c2ncc(C(N)=O)c(N)n2)C1	500 nM	–	–
C=CC(=O)N[C@H]1CCN(c2ccc(C(N)=O)c(Nc3ccc(N4C[C@@H](C)O[C@@H](C)C4)cc3)n2)C1	0.6 nM	6.1 nM	–
C=CC(=O)N1CCC[C@@H](n2nc(-c3ccc(Oc4ccccc4)cc3)c3c(N)ncnc32)C1 [IBRUTINIB]	–	–	half-life [4]: 30 min; INH (Cytochrome P450 3A4): 11 µM; INH (Cytochrome P450 2B6): 11.1 µM; AUC [5]: 26 ng·h/mL; INH (Cytochrome P450 2C19): 19 µM; INH (Cytochrome P450 2C9): 8.5 µM; INH (Cytochrome P450 2C8): 7.9 µM
C=CC(=O)N[C@H]1CCN(c2ncc(C(N)=O)c(Nc3ccc(F)cc3)n2)C1	8 nM	–	–
C=CC(=O)N[C@@H]1CCN(c2ccc(C(N)=O)c(Nc3ccc(C(=O)N4CCOCC4)cc3)n2)C1	16.2 nM	–	–
C=CC(=O)N[C@H]1CCN(c2nc(Nc3ccc(N4C[C@@H](C)O[C@@H](C)C4)cc3)c(C(N)=O)cc2F)C1	1.6 nM	14 nM	–
C=CC(=O)N(C)[C@H]1CCN(c2ccc(C(N)=O)c(Nc3ccc(CCN4CCCC4)cc3)n2)C1	1.3 nM	41 nM	efflux ratio [6]: 266; Papp A→B [7]: 0.07 ×10⁻⁶ cm/s
NC(=O)c1ccc(N2CC[C@H](N)C2)nc1Nc1ccc(C(=O)N2CCOCC2)cc1	1600 nM	–	–
C=CC(=O)N[C@H]1CCN(c2ccc(C(N)=O)c(Nc3ccc(CCN4CCCC4)cc3)n2)C1	1.9 nM	7 nM	–
C=CC(=O)N[C@H]1CCN(c2ccc(C(N)=O)c(Nc3ccc(C(=O)N4CCOCC4)cc3)n2)C1	1.5 nM	–	–
C=CC(=O)N[C@H]1CCN(c2ncc(C(N)=O)c(N)n2)C1	180 nM	–	–
C=CC(=O)N[C@H]1CCN(c2ncc(C(N)=O)c(Nc3ccc(C(=O)N4CC(C)OC(C)C4)cc3)n2)C1 (some centres undefined)	1.1 nM	44 nM	–
C=CC(=O)N[C@@H]1CN(c2ccc(C(N)=O)c(Nc3ccc(CCN4CCCC4)cc3)n2)CC12CC2	0.09 nM	4.9 nM	efflux ratio [6]: 822; Papp A→B [7]: 0.02 ×10⁻⁶ cm/s
C=CC(=O)N[C@H]1CCN(c2ccc(C(N)=O)c(Nc3ccc(Oc4ccccc4)cc3)n2)C1	11 nM	–	–
C=CC(=O)N[C@H]1CCCN(c2ccc(C(N)=O)c(Nc3ccc(C(=O)N4CCOCC4)cc3)n2)C1	16 nM	–	–
